Measurements as given in patent US8822449B2, “Substituted aminoindanes and analogs thereof, and the pharmaceutical use thereof” (Sanofi, priority 2008, dated 2014).
pIC50: −log10 of the molar value.

molecular target: T1, sodium-proton exchanger of subtype 3 (NHE3) (Homo sapiens, UniProt P48764); experiment: Recovery of intracellular pH (pHi) after acidification in LAP1 cells stably expressing NHE3 (BCECF fluorescence, FLIPR); format: cell-based; conditions: LAP1 cells stably expressing NHE3; pH recovery after acidification; range 1 is % inhibition at 10 μM; read-out: Activity range (inhibitory effect on NHE3)
T1 construct: expressed in transfected cells
T1 sequence (P48764 26-834): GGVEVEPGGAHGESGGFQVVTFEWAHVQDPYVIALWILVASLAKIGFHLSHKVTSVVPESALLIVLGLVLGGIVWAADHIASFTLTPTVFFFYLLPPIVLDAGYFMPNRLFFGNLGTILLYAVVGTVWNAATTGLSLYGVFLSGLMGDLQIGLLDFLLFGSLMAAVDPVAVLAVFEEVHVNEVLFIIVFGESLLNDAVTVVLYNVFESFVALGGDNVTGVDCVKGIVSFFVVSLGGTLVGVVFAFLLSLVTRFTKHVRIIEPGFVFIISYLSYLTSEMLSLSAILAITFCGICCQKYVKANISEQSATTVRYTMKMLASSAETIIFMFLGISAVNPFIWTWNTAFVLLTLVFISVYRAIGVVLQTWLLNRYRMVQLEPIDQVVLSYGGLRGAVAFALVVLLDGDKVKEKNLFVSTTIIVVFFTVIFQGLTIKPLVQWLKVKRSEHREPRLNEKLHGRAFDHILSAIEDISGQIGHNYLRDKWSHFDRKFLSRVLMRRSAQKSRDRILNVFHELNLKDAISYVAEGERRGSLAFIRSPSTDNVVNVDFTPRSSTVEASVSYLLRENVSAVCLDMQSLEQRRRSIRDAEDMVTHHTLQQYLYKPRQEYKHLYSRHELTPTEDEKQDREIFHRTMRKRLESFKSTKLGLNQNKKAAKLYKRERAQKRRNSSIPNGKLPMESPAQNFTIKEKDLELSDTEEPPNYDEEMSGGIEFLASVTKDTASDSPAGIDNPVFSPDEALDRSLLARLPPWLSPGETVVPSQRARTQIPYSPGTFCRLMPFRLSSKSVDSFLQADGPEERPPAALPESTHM

First: CC1(C)NC(=O)N(c2ccc(O[C@H]3c4cc(Cl)cc(Cl)c4C[C@@H]3N3CC[C@@H](O)C3)c(Cl)c2)C1=O [Example 423, 3-{3-chloro-4-[(1S,2S)-4,6-dichloro-2-((R)-3-hydroxypyrrolidin-1-yl)indan-1-yloxy]phenyl}-5,5-dimethylimidazolidine-2,4-dione]
Second: Cc1nnc(C)n1-c1ccc(O[C@H]2c3cc(Cl)cc(Cl)c3C[C@@H]2N2CC[C@@H](O)C2)c(F)c1 [Example 130, (R)-1-{trans-(1S,2S)-4,6-dichloro-1-[4-(3,5-dimethyl-[1,2,4]triazol-4-yl)-2-fluorophenoxy]indan-2-yl}pyrrolidin-3-ol]
The pIC50 of the first is lower: 5.00 to 6.00 for the first, over 6.00 for the second. The second is the more potent here.

Compared with CCCC1(N)CCCN([C@H]2Cc3c(Cl)cc(Cl)cc3[C@@H]2Oc2cccc(NC(C)=O)c2)C1 (mixture of isomers) [Example 693, N-{3-[trans-(1S,2S)-2-(3-amino-3-propylpiperidin-1-yl)-4,6-dichloroindan-1-yloxy]phenyl}acetamide], CC(=O)Nc1cccc(O[C@H]2c3ccc(Cl)cc3C[C@@H]2N2CCCC2)c1 (racemic) [Example 655, N-[3-(rac-trans-(1,2)-5-chloro-2-pyrrolidin-1-ylindan-1-yloxy)phenyl]acetamide] is lower in pIC50: over 6.00 for the first, 5.00 to 6.00 for the second.

N[C@@H]1CCCN([C@@H]2Cc3ccccc3[C@H]2Oc2ccc(NC(=O)OCc3ccccc3)cc2)C1 (racemic) [Example 238, {4-[rac-trans-(1,2)-2-((R)-3-aminopiperidin-1-yl)indan-1-yloxy]phenyl}carbamic acid benzyl ester] and CC(=O)Nc1ccc(OC2c3ccccc3CC2N2CCCC2)cc1 (racemic) [Example 666, N-[4-(rac-trans-(1,2)-2-pyrrolidin-1-ylindan-1-yloxy)phenyl]acetamide] fall in the same range of pIC50: 5.00 to 6.00 for the first, 5.00 to 6.00 for the second.

Cc1nnc(C)n1-c1ccc(O[C@H]2c3ccccc3C[C@@H]2N2CCCC2)c(C(F)(F)F)c1 [Example 406, 3,5-dimethyl-4-[4-(trans-(1S,2S)-2-pyrrolidin-1-ylindan-1-yloxy)-3-trifluoromethylphenyl]-4H-[1,2,4]triazole] and Cc1nnc(C)n1-c1ccc(O[C@H]2c3cc(Cl)ccc3C[C@@H]2N2CCCC2)c(F)c1 [Example 501, 4-[4-(trans-(1S,2S)-6-chloro-2-pyrrolidin-1-ylindan-1-yloxy)-3-fluorophenyl]-3,5-dimethyl-4H-[1,2,4]triazole] cannot be ordered by pIC50: over 6.00 for the first, over 6.00 for the second.

Compared with COCCN1CCCN([C@H]2Cc3c(Cl)cc(Cl)cc3[C@@H]2Oc2ccc(-c3c(C)noc3C)cc2)CC1 [Example 350, 1-{trans-(1S,2S)-4,6-dichloro-1-[4-(3,5-dimethylisoxazol-4-yl)phenoxy]indan-2-yl}-4-(2-methoxyethyl)-[1,4]diazepane], COCCN1CCCN([C@H]2Cc3c(Cl)cc(Cl)cc3[C@@H]2Oc2ccc(S(C)(=O)=O)cc2)CC1 [Example 304, 1-[trans-(1S,2S)-4,6-dichloro-1-(4-methanesulfonylphenoxy)indan-2-yl]-4-(2-methoxyethyl)-[1,4]diazepane] is higher in pIC50: 5.00 to 6.00 for the first, over 6.00 for the second. The second is the more potent here.

N#Cc1ccc(O[C@H]2c3ccccc3CC[C@@H]2N2CCC[C@@H](N)C2)c(F)c1F (racemic) [Example 509, 4-[rac-trans-(1,2)-2-((R)-3-aminopiperidin-1-yl)-1,2,3,4-tetrahydronaphthalen-1-yloxy]-2,3-difluorobenzonitrile] and NC(=O)c1ccccc1O[C@H]1c2ccccc2CC[C@@H]1N1CCC[C@@H](N)C1 (racemic) [Example 368, 2-[rac-trans-(1,2)-2-((R)-3-aminopiperidin-1-yl)-1,2,3,4-tetrahydronaphthalen-1-yloxy]benzamide] fall in the same range of pIC50: 5.00 to 6.00 for the first, 5.00 to 6.00 for the second.

Cc1nnc(C)n1-c1ccc(O[C@H]2c3cc(Cl)cc(Cl)c3C[C@@H]2N(C)CCO)c(F)c1 [Example 704, 2-({trans-(1S,2S)-4,6-Dichloro-1-[4-(3,5-dimethyl-[1,2,4]triazol-4-yl)-2-fluoro-phenoxy]-indan-2-yl}-methyl-amino)-ethanol] and CCc1nnc(C(C)C)n1-c1ccc(O[C@H]2c3cc(Cl)cc(Cl)c3C[C@@H]2N2CC[C@@H](O)C2)cc1 [Example 716, (R)-1-{trans-(1S,2S)-4,6-Dichloro-1-[4-(3-ethyl-5-isopropyl-[1,2,4]triazol-4-yl)-phenoxy]-indan-2-yl}-pyrrolidin-3-ol] cannot be ordered by pIC50: over 6.00 for the first, over 6.00 for the second.

First: CS(=O)(=O)c1ccc(OC2c3ccccc3CC2N2CCC[C@@H](N)C2)c(Cl)c1 (mixture of isomers) [Example 37, (R)-1-[rac-trans-(1,2)-1-(2-chloro-4-methanesulfonylphenoxy)indan-2-yl]piperidin-3-ylamine]
Second: CS(=O)(=O)c1ccc(O[C@H]2c3ccccc3CC[C@@H]2N2CCC[C@H](N)C2)cc1 (racemic) [Example 182, (S)-1-[rac-trans-(1,2)-1-(4-methanesulfonylphenoxy)-1,2,3,4-tetrahydronaphthalen-2-yl]piperidin-3-ylamine]
The pIC50 of the first is higher: over 6.00 for the first, 5.00 to 6.00 for the second. The first is the more potent here.

First: O=C1CCCN1c1ccc(Cl)c(O[C@H]2c3cc(Cl)cc(F)c3C[C@@H]2N2CC[C@@H](O)C2)c1 [Example 341, 1-{4-chloro-3-[(1S,2S)-6-chloro-4-fluoro-2-((R)-3-hydroxypyrrolidin-1-yl)indan-1-yloxy]phenyl}pyrrolidin-2-one]
Second: O=C1COC(=O)N1c1ccc(O[C@H]2c3cc(Cl)cc(Cl)c3C[C@@H]2N2CC[C@@H](O)C2)cc1 [Example 427, 3-{4-[(1S,2S)-4,6-dichloro-2-((R)-3-hydroxypyrrolidin-1-yl)indan-1-yloxy]phenyl}oxazolidine-2,4-dione]
The pIC50 of the first is higher: over 6.00 for the first, 5.00 to 6.00 for the second.

First: NS(=O)(=O)c1ccc(O[C@H]2c3cc(Cl)cc(Cl)c3C[C@@H]2N2CCOCC2)c(Cl)c1Cl (racemic) [Example 358, 2,3-dichloro-4-(rac-trans-(1,2)-4,6-dichloro-2-morpholin-4-ylindan-1-yloxy)benzenesulfonamide]
Second: CS(=O)(=O)c1ccc(O[C@H]2c3cc(Cl)cc(Cl)c3C[C@@H]2N2CCCN(CCO)CC2)cc1 [Example 385, 2-{4-[trans-(1S,2S)-4,6-dichloro-1-(4-methanesulfonylphenoxy)indan-2-yl]-[1,4]diazepan-1-yl}-ethanol]
The pIC50 of the first is lower: 5.00 to 6.00 for the first, over 6.00 for the second. The second is the more potent here.

First: CC(=O)Nc1cccc(O[C@H]2c3ccccc3C[C@@H]2N2CCC[C@@H](N(C)C)C2)c1 [Example 692, N-{3-[trans-(1S,2S)-2-((R)-3-dimethylaminopiperidin-1-yl)indan-1-yloxy]phenyl}acetamide]
Second: CCCc1ccc(NC(C)=O)cc1O[C@H]1c2ccccc2CC[C@@H]1N1CCC[C@H](N)C1 (racemic) [Example 683, N-{3-[rac-trans-(1,2)-2-((S)-3-aminopiperidin-1-yl)-1,2,3,4-tetrahydronaphthalen-1-yloxy]-4-propylphenyl}acetamide]
The pIC50 of the first is higher: over 6.00 for the first, 5.00 to 6.00 for the second.

Cc1c(O[C@H]2c3cc(Cl)cc(Cl)c3C[C@@H]2N2CC[C@@H](O)C2)cccc1-n1ccn(C)c1=O [Example 312, 1-{3-[(1S,2S)-4,6-dichloro-2-((R)-3-hydroxypyrrolidin-1-yl)indan-1-yloxy]-2-methylphenyl}-3-methyl-1,3-dihydroimidazol-2-one] and COc1cc(Cl)ccc1O[C@H]1c2ccccc2CC[C@@H]1N1CCC[C@H](N)C1 (racemic) [Example 174, (S)-1-[rac-trans-(1,2)-1-(4-chloro-2-methoxyphenoxy)-1,2,3,4-tetrahydronaphthalen-2-yl]piperidin-3-ylamine] fall in the same range of inhibition at 10 µM: 20 to 50% for the first, 20 to 50% for the second.

COc1cc(O[C@H]2c3ccccc3CC[C@@H]2N2CCC[C@H](N)C2)ccc1Br (racemic) [Example 173, (S)-1-[rac-trans-(1,2)-1-(4-bromo-3-methoxyphenoxy)-1,2,3,4-tetrahydronaphthalen-2-yl]piperidin-3-ylamine] and N[C@@H]1CCCN([C@H]2CCc3ccccc3[C@@H]2Oc2ccccc2Br)C1 (racemic) [Example 36, (R)-1-[rac-trans-(1,2)-1-(2-bromophenoxy)-1,2,3,4-tetrahydronaphthalen-2-yl]piperidin-3-ylamine] fall in the same range of inhibition at 10 µM: 20 to 50% for the first, 20 to 50% for the second.

N[C@H]1CCCN([C@H]2CCc3ccccc3[C@@H]2Oc2ccc(-n3ccnc3)cc2)C1 (racemic) [Example 180, (S)-1-[rac-trans-(1,2)-1-(4-imidazol-1-ylphenoxy)-1,2,3,4-tetrahydronaphthalen-2-yl]piperidin-3-ylamine] and N[C@@H]1CCCN([C@H]2CCc3ccccc3[C@@H]2Oc2ccc(C(F)(F)F)cc2)C1 (racemic) [Example 77, (R)-1-[rac-trans-(1,2)-1-(4-trifluoromethylphenoxy)-1,2,3,4-tetrahydronaphthalen-2-yl]piperidin-3-ylamine] fall in the same range of inhibition at 10 µM: 20 to 50% for the first, 20 to 50% for the second.

N#Cc1cc(Br)ccc1O[C@H]1c2ccccc2CC[C@@H]1N1CCC[C@@H](N)C1 (racemic) [Example 369, 2-[rac-trans-(1,2)-2-((S)-3-aminopiperidin-1-yl)-1,2,3,4-tetrahydronaphthalen-1-yloxy]-5-bromobenzonitrile] showed an inhibition at 10 µM of 20 to 50%.
